Results as given in publication PMC4207539 (Journal of Medicinal Chemistry, 2014).
Several values for one entry are separate records, joined by “and”; a condition that tells them apart may be missing. Equal values may be shown once.

Experiments:
VEEV TC-83 strain = assay type: cell-based, Venezuelan equine encephalitis virus
[1] = male, in vivo
[2] = tested on: panel of 67 GPCRs, ion channels and transporters; assay type: binding; settings: 10 µM
VEEV TrD strain = assay type: cell-based, Venezuelan equine encephalitis virus
CYP3A4 = CYP3A4 (Homo sapiens, UniProt P08684); test: in vitro; settings: pH 7.4
VEEV (TC-83) [3] = test: microbe, parasite or virus in culture; settings: Venezuelan equine encephalitis virus, read-out: EC50, several VEEV strains
VEEV (TC-83) [4] = settings: mouse, in vivo
Fa2N-4 cells = settings: human
[5] = mouse, in vivo, ip
CYP2C19 = CYP2C19 (Homo sapiens, UniProt P33261); test: in vitro; settings: pH 7.4
CYP2C9 = CYP2C9 (Homo sapiens, UniProt P11712); test: in vitro; settings: pH 7.4
CYP2D6 = CYP2D6 (Homo sapiens, UniProt P10635); test: in vitro; settings: pH 7.4
VEEV (TC-83) [6] = tested on: VEEV (TC-83)

Sequence of CYP2C19 (P33261 whole entry): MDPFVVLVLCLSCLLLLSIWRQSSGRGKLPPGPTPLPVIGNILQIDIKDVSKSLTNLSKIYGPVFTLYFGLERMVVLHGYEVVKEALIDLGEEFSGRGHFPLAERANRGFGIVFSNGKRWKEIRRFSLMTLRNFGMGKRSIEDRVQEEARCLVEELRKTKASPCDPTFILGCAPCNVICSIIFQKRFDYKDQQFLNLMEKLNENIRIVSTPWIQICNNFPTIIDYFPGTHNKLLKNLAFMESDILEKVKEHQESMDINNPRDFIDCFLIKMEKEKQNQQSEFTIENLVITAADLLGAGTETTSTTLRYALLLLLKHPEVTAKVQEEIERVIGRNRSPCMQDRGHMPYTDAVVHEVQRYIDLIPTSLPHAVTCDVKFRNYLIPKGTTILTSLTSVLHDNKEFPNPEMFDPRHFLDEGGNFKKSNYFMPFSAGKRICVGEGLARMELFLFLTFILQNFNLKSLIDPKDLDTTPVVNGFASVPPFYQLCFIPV
Sequence of CYP3A4 (P08684 whole entry): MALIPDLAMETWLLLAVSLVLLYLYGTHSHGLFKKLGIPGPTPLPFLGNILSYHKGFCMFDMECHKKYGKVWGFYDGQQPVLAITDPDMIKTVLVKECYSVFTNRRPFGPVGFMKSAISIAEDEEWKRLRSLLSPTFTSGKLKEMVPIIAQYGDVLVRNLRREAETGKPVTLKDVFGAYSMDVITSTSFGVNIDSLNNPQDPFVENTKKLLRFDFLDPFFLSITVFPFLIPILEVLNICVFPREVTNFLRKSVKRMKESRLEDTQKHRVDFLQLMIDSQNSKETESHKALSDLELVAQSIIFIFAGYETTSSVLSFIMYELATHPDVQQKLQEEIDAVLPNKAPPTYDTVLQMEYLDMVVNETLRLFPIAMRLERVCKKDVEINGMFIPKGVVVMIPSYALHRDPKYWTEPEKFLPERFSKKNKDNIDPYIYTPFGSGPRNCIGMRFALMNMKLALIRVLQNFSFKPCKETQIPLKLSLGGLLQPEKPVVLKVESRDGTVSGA
Sequence of CYP2D6 (P10635 whole entry): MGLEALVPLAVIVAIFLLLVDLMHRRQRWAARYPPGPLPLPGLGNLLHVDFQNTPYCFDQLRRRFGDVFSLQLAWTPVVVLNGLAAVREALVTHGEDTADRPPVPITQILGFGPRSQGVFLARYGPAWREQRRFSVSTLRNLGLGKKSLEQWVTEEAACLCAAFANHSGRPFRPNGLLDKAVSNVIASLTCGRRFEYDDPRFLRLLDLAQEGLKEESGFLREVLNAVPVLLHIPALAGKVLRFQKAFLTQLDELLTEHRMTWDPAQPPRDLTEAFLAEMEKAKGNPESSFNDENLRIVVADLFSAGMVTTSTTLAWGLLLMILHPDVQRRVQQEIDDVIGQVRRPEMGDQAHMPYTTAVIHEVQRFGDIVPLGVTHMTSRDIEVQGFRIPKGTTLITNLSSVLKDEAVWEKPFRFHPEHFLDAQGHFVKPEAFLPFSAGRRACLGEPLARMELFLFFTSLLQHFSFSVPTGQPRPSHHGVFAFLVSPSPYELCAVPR
Sequence of CYP2C9 (P11712 whole entry): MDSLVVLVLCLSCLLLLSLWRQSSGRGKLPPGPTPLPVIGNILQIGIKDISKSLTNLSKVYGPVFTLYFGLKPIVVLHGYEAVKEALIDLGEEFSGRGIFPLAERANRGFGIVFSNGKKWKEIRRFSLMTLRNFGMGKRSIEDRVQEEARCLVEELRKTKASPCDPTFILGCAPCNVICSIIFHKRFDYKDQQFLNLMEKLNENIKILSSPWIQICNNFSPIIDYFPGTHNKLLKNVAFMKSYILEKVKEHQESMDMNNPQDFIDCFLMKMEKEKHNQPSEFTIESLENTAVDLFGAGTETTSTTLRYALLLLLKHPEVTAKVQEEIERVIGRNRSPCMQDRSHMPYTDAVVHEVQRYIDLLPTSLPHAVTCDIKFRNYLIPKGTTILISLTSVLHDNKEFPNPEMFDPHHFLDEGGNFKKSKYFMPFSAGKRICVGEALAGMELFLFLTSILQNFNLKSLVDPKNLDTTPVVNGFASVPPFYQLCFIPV

CCN1CCN(Cc2nc3ccc([N+](=O)[O-])cc3c(=O)n2-c2ccccc2F)CC1 [compound 1, 2-((4-Ethylpiperazin-1-yl)methyl)-3-(2-fluorophenyl)-6-nitroquinazolin-4(3H)-one]
titer reduction, TC-83 strain (log) (VEEV TC-83 strain): 0.5 log (3-fold)

CN1CCN(C)/C(=N/c2ccc([N+](=O)[O-])cc2C(=O)Nc2ccccc2)C1 [compound 45, (E)-2-((1,4-Dimethylpiperazin-2-ylidene)amino)-5-nitro-N-phenylbenzamide]
plasma and brain concentration over in vitro CPE assay EC50 ([1]; C57Bl/6, mouse): > 10 fold | brain average concentration ± standard deviation ([1]; C57Bl/6J, mouse): 0.35 ± 0.06 µM | inhibition of all other targets in the collection [2]: ≤ 36% | solubility (physchem; aqueous solubility, VEEV CPE assay medium): 13.1 µg/mL | solubility (physchem; pH 7.4, aqueous solubility, 1× PBS, pH 7.4): 110 µM | titer reduction, TrD strain (VEEV TrD strain): no measurable viral replication | inhibition at 10 µM (CYP3A4): < 30% | titer reduction, TC-83 strain (fold) (VEEV TC-83 strain): 5.8 log (630 000 fold) and 7.2 log (16 million fold) | titer reduction, TC-83 strain, dose response, EC90 (VEEV TC-83 strain): 170 nM | EC50 (VEEV (TC-83) [3]): 20 to 40 nM | percent survival (VEEV (TC-83) [4]): 71% | hepatocyte toxicity (Fa2N-4), LD50 (Fa2N-4 cells): > 25 µM | toxicity (body weight loss, lethargy, hunched posture, ruffled fur) [5]: no apparent toxicity or adverse effects were observed | inhibition at 10 µM (CYP2C19): < 30% | inhibition at 10 µM (CYP2C9): < 30% | inhibition at 10 µM (CYP2D6): < 30%

COc1ccc(NC(=O)c2cc([N+](=O)[O-])ccc2/N=C2\CN(C)CCN2C)cc1 [compound 51, (E)-2-((1,4-Dimethylpiperazin-2-ylidene)amino)-N-(4-methoxyphenyl)-5-nitrobenzamide]
titer reduction, TrD strain (VEEV TrD strain): no measurable viral replication | titer reduction, TC-83 strain (fold) (VEEV TC-83 strain): 7.2 log (16 million fold) | titer reduction, TC-83 strain (log) (VEEV TC-83 strain): 7.2 log (16 million fold) | titer reduction, TC-83 strain, dose response, EC90 (VEEV TC-83 strain): 170 nM | lipophilic ligand efficiency, LLE (VEEV (TC-83) [6]): 4.1
